In ChEMBL document CHEMBL5331108, “Design and Synthesis of 4-Fluorophenyl-5-methylene-2(5H)-furanone Derivatives as Potent Quorum Sensing Inhibitors” (J Med Chem, 2023):
Values after ≈ are worked out from the molar mass of the structure shown. Active and inactive are the calls of the source. No cut-off for these calls is given here.

Key:
[1] = Inhibition of quorum sensing system in Pseudomonas aeruginosa PAO1 assessed as inhibition of rhamnolipid production at 102.4 ug/ml incubated for 24 hrs by absorbance based assay; conditions: dose 102.4 µg/ml
[2] = test system: Pseudomonas aeruginosa; test: Antibacterial activity against penicillin-susceptible Pseudomonas aeruginosa ATCC27853 assessed as inhibition of bacterial growth incubated for 20 hrs by CLSI protocol based microdilution method; type: functional
[3] = test system: Bacillus pumilus; test: Antibacterial activity against penicillin-susceptible Bacillus pumilus CMCC63202 assessed as inhibition of bacterial growth incubated for 20 hrs by CLSI protocol based microdilution method; type: functional
[4] = test system: Staphylococcus aureus; test: Antibacterial activity against erthromycin-susceptible Staphylococcus aureus ATCC25923 assessed as inhibition of bacterial growth incubated for 20 hrs by CLSI protocol based microdilution method; type: functional
[5] = test system: Pseudomonas aeruginosa; test: Antibacterial activity against Pseudomonas aeruginosa 27853 assessed as inhibition of bacterial growth at 256 ug/ml measured after 25 hrs by absorbance based assay; type: functional, organism-based; conditions: dose 256.0 µg/ml
[6] = test system: Pseudomonas aeruginosa; test: Antibacterial activity against wild type Pseudomonas aeruginosa […] CGMCC1.12483 assessed as inhibition of bacterial growth incubated for 20 hrs by CLSI protocol based microdilution method; type: functional
[7] = test system: Pseudomonas aeruginosa; test: Inhibition of biofilm formation in Pseudomonas aeruginosa PAO1 at 32 ug/ml incubated for 20 hrs by crystal violet staining based analysis; type: functional; conditions: dose 32.0 µg/ml
[8] = test system: Pseudomonas aeruginosa; test: Antibacterial activity against Pseudomonas aeruginosa PAO1 assessed as inhibition of bacterial growth at 256 ug/ml measured after 25 hrs by absorbance based assay; type: functional, organism-based; conditions: dose 256.0 µg/ml
[9] = test system: Escherichia coli; test: Antibacterial activity against penicillin-susceptible Escherichia coli ATCC25922 assessed as inhibition of bacterial growth incubated for 20 hrs by CLSI protocol based microdilution method; type: functional
[10] = Inhibition of quorum sensing system in Pseudomonas aeruginosa PAO1 assessed as inhibition of protease activity at 102.4 ug/ml incubated for 24 hrs by absorbance based assay; conditions: dose 102.4 µg/ml
[11] = Inhibition of quorum sensing system in Pseudomonas aeruginosa PAO1 assessed as inhibition of pyocyanin production at 102.4 ug/ml incubated for 18 hrs by absorbance based assay; conditions: dose 102.4 µg/ml
[12] = test system: Bacillus subtilis; test: Antibacterial activity against penicillin-susceptible Bacillus subtilis ATCC9372 assessed as inhibition of bacterial growth incubated for 20 hrs by CLSI protocol based microdilution method; type: functional
[13] = test system: Staphylococcus aureus; test: Antibacterial activity against methicillin-resistant Staphylococcus aureus ATCC43300 assessed as inhibition of bacterial growth incubated for 20 hrs by CLSI protocol based microdilution method; type: functional
[14] = test system: Pseudomonas aeruginosa; test: Synergistic antibacterial activity against Pseudomonas aeruginosa PAO1 assessed as inhibition of bacterial growth at 1 to 256 ug/ml incubated for 24 hrs in the presence of ciprofloxacin by absorbance based microplate reader analysis; type: functional, organism-based; conditions: dose 1-256 µg/ml
[15] = test system: Pseudomonas aeruginosa; test: Synergistic antibacterial activity against Pseudomonas aeruginosa 27853 assessed as inhibition of bacterial growth at 1 to 256 ug/ml incubated for 24 hrs in the presence of Ciprofloxacin by absorbance based microplate reader analysis; type: functional, organism-based; conditions: dose 1-256 µg/ml
[16] = Hemolytic activity in mouse red blood cells assessed as hemolysis rate at 512 ug/ml incubated for 1 hrs by microplate reader analysis relative to control; type: toxicity, cell-based, Erythrocyte; conditions: red blood cells (erythrocytes), at 512 µg/mL, read-out: Activity
[17] = test system: Pseudomonas aeruginosa; test: Synergistic antibacterial activity against Pseudomonas aeruginosa 27853 assessed as inhibition of bacterial growth by measuring fold change in ciprofloxacin at 1 to 256 ug/ml incubated for 24 hrs by absorbance based microplate reader analysis; type: functional; conditions: dose 1-256 µg/ml
[18] = test system: Pseudomonas aeruginosa; test: Synergistic antibacterial activity against Pseudomonas aeruginosa 27853 assessed as inhibition of bacterial growth incubated for 24 hrs in the presence of Clarithromycin by absorbance based microplate reader analysis; type: functional, organism-based; conditions: dose 1-256 µg/ml
[19] = test system: Pseudomonas aeruginosa; test: Synergistic antibacterial activity against Pseudomonas aeruginosa PAO1 assessed as inhibition of bacterial growth at 1 to 256 ug/ml incubated for 24 hrs in the presence of Clarithromycin by absorbance based microplate reader analysis; type: functional, organism-based; conditions: dose 1-256 µg/ml

| SMILES | inhibition [1] | MIC [2] [µg/mL] | MIC [3] [µg/mL] | MIC [4] [µg/mL] | Activity [5] | MIC [6] [µg/mL] | inhibition [7] | Activity [8] | MIC [9] [µg/mL] | inhibition [10] | inhibition [11] | MIC [12] [µg/mL] | MIC [13] [µg/mL] | Activity [14] | Activity [15] | hemolysis at 1 h, 512 ug/ml [16] [%] | fold change (FC) [17] | Activity [18] | Activity [19] |
| --- | --- | --- | --- | --- | --- | --- | --- | --- | --- | --- | --- | --- | --- | --- | --- | --- | --- | --- | --- |
| C=C1OC(=O)C(CNC(=O)c2ccc(C)cc2)=C1c1cccc(Cl)c1 | Active | > 512 | > 512 | > 512 | inactive | > 512 | inactive | inactive | > 512 | Active | Active | > 512 | > 512 | – | – | – | – | – | – |
| O=C1C=C(Br)/C(=C/Br)O1 | 44.9% | 256 (≈ 1010 µM) | 256 (≈ 1010 µM) | 32 (≈ 126 µM) | Active | 128 (≈ 504 µM) | Active | Active | 256 (≈ 1010 µM) | – | – | 64 (≈ 252 µM) | 128 (≈ 504 µM) | – | – | – | – | – | – |
| C=C1OC(=O)C(CNC(=O)c2ccc(C)cc2)=C1c1cccc(F)c1 | – | > 512 | > 512 | > 512 | – | > 512 | – | – | > 512 | – | – | > 512 | > 512 | – | – | – | – | – | – |
| C=C1OC(=O)C(CNC(=O)c2ccc(C)cc2)=C1c1ccccc1F | – | > 512 | > 512 | > 512 | – | > 512 | – | – | > 512 | – | – | > 512 | > 512 | – | – | – | – | – | – |
| C=C1C(c2ccc(F)cc2)=C(CNC(=O)c2ccc(C)cc2)C(=O)N1CC | – | 64 (≈ 176 µM) | 512 (≈ 1400 µM) | > 512 | – | 512 (≈ 1400 µM) | – | – | > 512 | – | – | > 512 | > 512 | – | – | – | – | – | – |
| C=C1OC(=O)C(CNC(=O)Cc2ccccc2)=C1c1ccc(F)cc1 | – | > 512 | > 512 | > 512 | – | > 512 | – | – | > 512 | – | inactive | > 512 | > 512 | – | – | – | – | – | – |
| C=C1C(c2ccc(F)cc2)=C(CNC(=O)c2ccc(C)cc2)C(=O)N1c1cccc(C)c1 | 57.1% | > 512 | 512 (≈ 1200 µM) | > 512 | inactive | 512 (≈ 1200 µM) | Active | inactive | > 512 | 8.6% | 35.2% | > 512 | > 512 | Active | Active | > 2.5 | >=1.5 | Dose-Dependent Effect | – |
| C=C1C(c2ccc(F)cc2)=C(CNC(=O)c2ccc(C)cc2)C(=O)N1C1CCCC1 | – | > 512 | 512 (≈ 1270 µM) | > 512 | – | 512 (≈ 1270 µM) | – | – | > 512 | – | – | > 512 | 512 (≈ 1270 µM) | – | – | – | – | – | – |
| C=C1OC(=O)C(CNC(=O)c2ccc(Cl)cc2)=C1c1ccc(F)cc1 | 47.3% | > 512 | > 512 | > 512 | inactive | > 512 | Active | inactive | > 512 | 8.6% | Active | > 512 | > 512 | Active | Active | > 2.5 | – | Dose-Dependent Effect | Active |
| C=C1OC(=O)C(CNC(=O)c2ccc(C)cc2)=C1c1ccc(OC)cc1 | Active | > 512 | > 512 | > 512 | inactive | > 512 | inactive | inactive | > 512 | Active | Active | > 512 | > 512 | – | – | – | – | – | – |
| C=C1C(c2ccc(F)cc2)=C(CNC(=O)c2ccc(C)cc2)C(=O)N1c1cccc(Cl)c1 | – | > 512 | 512 (≈ 1150 µM) | > 512 | – | 512 (≈ 1150 µM) | – | – | > 512 | – | – | > 512 | > 512 | – | – | – | – | – | – |
| C=C1OC(=O)C(CNC(=O)c2cccc(OC)c2)=C1c1ccc(F)cc1 | Active | > 512 | > 512 | > 512 | inactive | > 512 | Active | inactive | > 512 | 8.6% | Active | > 512 | 32 (≈ 90.6 µM) | Active | Active | – | – | Dose-Dependent Effect | Active |
| C=C1C(c2ccc(F)cc2)=C(CNC(=O)c2ccc(C)cc2)C(=O)N1c1ccc(C)cc1 | 49.7% | > 512 | 512 (≈ 1200 µM) | > 512 | inactive | 512 (≈ 1200 µM) | inactive | inactive | > 512 | 8.6% | Active | 512 (≈ 1200 µM) | > 512 | Active | Active | > 2.5 | >=1.5 | Dose-Dependent Effect | – |
| C=C1OC(=O)C(CNC(=O)c2ccc(C)cc2)=C1c1ccc(-c2ccccc2)cc1 | – | > 512 | > 512 | > 512 | – | > 512 | – | – | > 512 | – | – | > 512 | > 512 | – | – | – | – | – | – |
| C=C1OC(=O)C(CNC(=O)CCCCC)=C1c1ccc(F)cc1 | – | > 512 | 256 (≈ 807 µM) | 16 (≈ 50.4 µM) | – | > 512 | – | – | > 512 | – | – | 256 (≈ 807 µM) | 256 (≈ 807 µM) | – | – | – | – | – | – |
| C=C1C(c2ccc(F)cc2)=C(CNC(=O)c2ccc(C)cc2)C(=O)N1c1ccccc1Cl | – | > 512 | 512 (≈ 1150 µM) | > 512 | – | 512 (≈ 1150 µM) | – | – | > 512 | – | – | > 512 | > 512 | – | – | – | – | – | – |
| C=C1OC(=O)C(CNC(=O)c2ccc(C)cc2)=C1c1cccc(Br)c1 | – | > 512 | > 512 | > 512 | – | > 512 | – | – | > 512 | – | – | > 512 | > 512 | – | – | – | – | – | – |
| C=C1C(c2ccc(F)cc2)=C(CNC(=O)c2ccc(C)cc2)C(=O)N1CCC | – | 256 (≈ 676 µM) | 512 (≈ 1350 µM) | > 512 | – | 512 (≈ 1350 µM) | – | – | > 512 | – | – | > 512 | > 512 | – | – | – | – | – | – |
| C=C1OC(=O)C(CNC(=O)CCCCCCCCCCC)=C1c1ccc(F)cc1 | Active | > 512 | > 512 | > 512 | inactive | > 512 | Active | inactive | > 512 | Active | 36.5% | > 512 | > 512 | – | – | – | – | – | – |
| C=C1OC(=O)C(CNC(=O)CCc2ccccc2)=C1c1ccc(F)cc1 | – | > 512 | > 512 | > 512 | – | 512 (≈ 1460 µM) | – | – | > 512 | – | inactive | 64 (≈ 182 µM) | 16 (≈ 45.5 µM) | – | – | – | – | – | – |
| C=C1OC(=O)C(CNC(=O)CCCCCCCC)=C1c1ccc(F)cc1 | – | > 512 | > 512 | > 512 | – | > 512 | – | – | > 512 | – | – | > 512 | > 512 | – | – | – | – | – | – |
| C=C1OC(=O)C(CNC(=O)c2ccc(C)cc2)=C1c1ccccc1Br | – | > 512 | > 512 | > 512 | – | > 512 | – | – | > 512 | – | – | > 512 | > 512 | – | – | – | – | – | – |
| C=C1OC(=O)C(CNC(=O)c2cccc(F)c2)=C1c1ccc(F)cc1 | – | > 512 | > 512 | > 512 | – | > 512 | – | – | > 512 | – | – | > 512 | > 512 | – | – | – | – | – | – |
| C=C1OC(=O)C(CNC(=O)CCCCCCCCCC)=C1c1ccc(F)cc1 | Active | > 512 | > 512 | > 512 | inactive | > 512 | inactive | inactive | > 512 | Active | 44.7% | > 512 | > 512 | – | – | – | – | – | – |
